Format in all cases: biochemical
One test addresses T1, Recombinant human FAP (Homo sapiens, UniProt Q12884).
T1 construct: purchased R&D systems
T1 sequence (Q12884 1-760): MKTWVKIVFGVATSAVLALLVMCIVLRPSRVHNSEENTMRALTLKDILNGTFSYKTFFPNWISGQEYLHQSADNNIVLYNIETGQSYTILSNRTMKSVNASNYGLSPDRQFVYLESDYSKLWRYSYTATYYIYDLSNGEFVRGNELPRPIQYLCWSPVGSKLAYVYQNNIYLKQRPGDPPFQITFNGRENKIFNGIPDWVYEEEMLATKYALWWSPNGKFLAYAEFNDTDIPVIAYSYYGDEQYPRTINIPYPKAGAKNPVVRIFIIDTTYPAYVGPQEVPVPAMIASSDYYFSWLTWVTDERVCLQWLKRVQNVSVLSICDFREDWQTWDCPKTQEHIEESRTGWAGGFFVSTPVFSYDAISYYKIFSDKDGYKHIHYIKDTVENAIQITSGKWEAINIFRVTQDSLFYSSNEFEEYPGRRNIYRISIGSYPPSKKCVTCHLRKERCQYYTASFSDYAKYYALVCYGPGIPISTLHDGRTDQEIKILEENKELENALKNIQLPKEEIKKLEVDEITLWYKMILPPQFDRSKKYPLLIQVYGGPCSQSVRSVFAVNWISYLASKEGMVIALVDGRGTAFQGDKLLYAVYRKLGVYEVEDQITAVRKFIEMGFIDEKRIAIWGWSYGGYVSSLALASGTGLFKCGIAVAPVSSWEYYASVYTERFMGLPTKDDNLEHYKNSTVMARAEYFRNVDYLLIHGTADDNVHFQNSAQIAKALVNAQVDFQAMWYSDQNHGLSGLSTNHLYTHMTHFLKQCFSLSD
Nature of the test: FAP inhibition, fluorogenic substrate Z-Gly-Pro-AMC. The gist of the method:
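Eight-point compound dilutions (≤0.1% DMSO) were incubated at 25° C with 10 ng recombinant human FAP in Tris pH 7.5/1 M NaCl/BSA buffer and Z-Gly-Pro-AMC. Inhibition was taken as % drop in fluorescence rate (380/460 nm) against uninhibited control; IC50 came from a four-parameter logistic fit.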

In a further test the target is T2, recombinant human DPP7 (Homo sapiens, UniProt Q9UHL4).
T2 construct: purchased R&D Systems
As to the kind of experiment: DPP7 inhibition, fluorogenic substrate Lys-Pro-AMC. In short, it runs like this: (§1)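 Inhibitors are titrated in an 8-point series into the enzyme's assay buffer (DMSO no more than 0.5%). Substrate cleavage at 25 °C is followed by fluorescence, excitation 380 nm and emission 460 nm. IC50 values come from a four-variable logistic model.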

A further test concerns the target T3, recombinant human DPP8 (Homo sapiens, UniProt Q6V1X1).
T3 construct: purchased PBS Bioscience
As to the kind of experiment: DPP8 inhibition, fluorogenic substrate Z-Ala-Pro-AMC. In short, it runs like this: as §1

The target in a further test is T4, recombinant human DPP9 (Homo sapiens, UniProt Q86TI2).
T4 construct: purchased R&D Systems
T4 sequence (Q86TI2 whole entry): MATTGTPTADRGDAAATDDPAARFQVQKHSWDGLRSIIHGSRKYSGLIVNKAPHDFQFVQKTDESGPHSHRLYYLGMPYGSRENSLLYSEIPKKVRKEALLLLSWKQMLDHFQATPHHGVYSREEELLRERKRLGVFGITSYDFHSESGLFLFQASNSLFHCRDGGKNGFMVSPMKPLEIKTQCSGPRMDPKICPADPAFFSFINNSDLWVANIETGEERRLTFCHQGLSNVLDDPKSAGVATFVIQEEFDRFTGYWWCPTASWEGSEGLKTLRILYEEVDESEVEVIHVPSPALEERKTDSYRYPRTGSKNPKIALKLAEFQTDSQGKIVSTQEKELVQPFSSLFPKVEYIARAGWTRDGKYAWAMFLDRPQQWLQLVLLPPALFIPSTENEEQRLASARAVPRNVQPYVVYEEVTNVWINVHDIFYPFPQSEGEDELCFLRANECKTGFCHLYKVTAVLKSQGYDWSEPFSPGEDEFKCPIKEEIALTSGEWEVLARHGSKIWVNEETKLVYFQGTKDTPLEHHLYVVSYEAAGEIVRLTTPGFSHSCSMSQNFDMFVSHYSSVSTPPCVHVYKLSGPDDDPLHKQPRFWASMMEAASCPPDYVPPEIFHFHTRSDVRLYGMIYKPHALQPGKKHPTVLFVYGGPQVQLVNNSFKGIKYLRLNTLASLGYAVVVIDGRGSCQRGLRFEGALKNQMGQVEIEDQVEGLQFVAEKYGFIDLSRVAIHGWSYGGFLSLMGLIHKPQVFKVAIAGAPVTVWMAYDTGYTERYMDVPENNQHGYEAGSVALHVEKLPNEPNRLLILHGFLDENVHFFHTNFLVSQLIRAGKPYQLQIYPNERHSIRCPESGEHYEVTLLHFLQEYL
Nature of the test: DPP9 inhibition, fluorogenic substrate H-Gly-Pro-AMC. In short, it runs like this: as §1

Another test addresses T5, recombinant human PREP (Homo sapiens, UniProt P48147).
T5 construct: purchased R&D System
T5 sequence (P48147 1-710): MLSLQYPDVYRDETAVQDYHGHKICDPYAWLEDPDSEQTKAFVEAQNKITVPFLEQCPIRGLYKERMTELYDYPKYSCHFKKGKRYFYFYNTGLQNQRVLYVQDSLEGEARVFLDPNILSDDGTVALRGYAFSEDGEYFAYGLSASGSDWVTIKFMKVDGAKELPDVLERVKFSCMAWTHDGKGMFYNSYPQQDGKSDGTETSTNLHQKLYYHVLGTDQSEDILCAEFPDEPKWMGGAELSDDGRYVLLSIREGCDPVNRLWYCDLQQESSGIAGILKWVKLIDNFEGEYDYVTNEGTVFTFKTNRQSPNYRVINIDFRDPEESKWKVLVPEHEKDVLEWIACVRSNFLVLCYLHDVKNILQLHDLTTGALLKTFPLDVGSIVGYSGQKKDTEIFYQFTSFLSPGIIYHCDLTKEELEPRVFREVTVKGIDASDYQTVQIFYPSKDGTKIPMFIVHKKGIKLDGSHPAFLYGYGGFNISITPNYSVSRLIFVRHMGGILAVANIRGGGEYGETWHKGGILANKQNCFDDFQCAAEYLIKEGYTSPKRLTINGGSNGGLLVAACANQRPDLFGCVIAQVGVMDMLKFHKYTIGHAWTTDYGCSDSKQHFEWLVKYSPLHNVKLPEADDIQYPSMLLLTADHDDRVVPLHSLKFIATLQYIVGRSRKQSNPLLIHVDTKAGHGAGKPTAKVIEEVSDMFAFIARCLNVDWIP
Nature of the test: PREP inhibition, fluorogenic substrate Z-Gly-Pro-AMC. The note with it: Inhibitory Activity (IC50, nM) PREP. In short, it runs like this: as §1

The target in the next test is DPP4 (Homo sapiens, UniProt P27487). Nature of the test: DPP4 inhibition, fluorogenic substrate H-Gly-Pro-AMC. Also noted: purchased R&D Systems. The note with it: for inhibition at 1 µM: read-out: hDPP4 inhibition % at 1 μM.
DPP4, sequence (P27487 whole entry): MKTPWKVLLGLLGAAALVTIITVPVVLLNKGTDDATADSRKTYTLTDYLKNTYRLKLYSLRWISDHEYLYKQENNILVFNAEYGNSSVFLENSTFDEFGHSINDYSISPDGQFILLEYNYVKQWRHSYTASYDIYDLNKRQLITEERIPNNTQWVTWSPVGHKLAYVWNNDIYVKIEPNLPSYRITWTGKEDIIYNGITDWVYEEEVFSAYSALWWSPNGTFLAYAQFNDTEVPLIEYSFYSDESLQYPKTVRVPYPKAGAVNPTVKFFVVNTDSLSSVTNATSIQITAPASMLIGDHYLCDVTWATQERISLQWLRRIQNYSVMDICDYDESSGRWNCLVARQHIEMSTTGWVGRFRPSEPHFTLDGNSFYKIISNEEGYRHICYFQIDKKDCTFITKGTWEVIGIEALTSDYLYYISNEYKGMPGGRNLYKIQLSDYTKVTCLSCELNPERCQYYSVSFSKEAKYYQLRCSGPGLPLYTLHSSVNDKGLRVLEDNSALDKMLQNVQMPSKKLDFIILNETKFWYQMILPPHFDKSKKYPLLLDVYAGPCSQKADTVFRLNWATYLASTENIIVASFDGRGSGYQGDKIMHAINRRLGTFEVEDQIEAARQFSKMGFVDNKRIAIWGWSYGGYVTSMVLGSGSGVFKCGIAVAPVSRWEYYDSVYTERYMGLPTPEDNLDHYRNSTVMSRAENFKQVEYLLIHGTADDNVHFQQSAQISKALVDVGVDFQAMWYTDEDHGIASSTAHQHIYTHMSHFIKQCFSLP
[1] abbreviates: recombinant human FAP, substrate Z-Gly-Pro-AMC.
The mark [2] stands for this setting: 25° C., Z-Gly-Pro-AMC substrate.
Where [3] appears, read: 25° C., Z-Ala-Pro-AMC substrate.
Setting [4] is: 25° C., H-Gly-Pro-AMC substrate.

Read-outs that look alike come from different tables or passages of the source.

T3 sequence (Q6V1X1 whole entry): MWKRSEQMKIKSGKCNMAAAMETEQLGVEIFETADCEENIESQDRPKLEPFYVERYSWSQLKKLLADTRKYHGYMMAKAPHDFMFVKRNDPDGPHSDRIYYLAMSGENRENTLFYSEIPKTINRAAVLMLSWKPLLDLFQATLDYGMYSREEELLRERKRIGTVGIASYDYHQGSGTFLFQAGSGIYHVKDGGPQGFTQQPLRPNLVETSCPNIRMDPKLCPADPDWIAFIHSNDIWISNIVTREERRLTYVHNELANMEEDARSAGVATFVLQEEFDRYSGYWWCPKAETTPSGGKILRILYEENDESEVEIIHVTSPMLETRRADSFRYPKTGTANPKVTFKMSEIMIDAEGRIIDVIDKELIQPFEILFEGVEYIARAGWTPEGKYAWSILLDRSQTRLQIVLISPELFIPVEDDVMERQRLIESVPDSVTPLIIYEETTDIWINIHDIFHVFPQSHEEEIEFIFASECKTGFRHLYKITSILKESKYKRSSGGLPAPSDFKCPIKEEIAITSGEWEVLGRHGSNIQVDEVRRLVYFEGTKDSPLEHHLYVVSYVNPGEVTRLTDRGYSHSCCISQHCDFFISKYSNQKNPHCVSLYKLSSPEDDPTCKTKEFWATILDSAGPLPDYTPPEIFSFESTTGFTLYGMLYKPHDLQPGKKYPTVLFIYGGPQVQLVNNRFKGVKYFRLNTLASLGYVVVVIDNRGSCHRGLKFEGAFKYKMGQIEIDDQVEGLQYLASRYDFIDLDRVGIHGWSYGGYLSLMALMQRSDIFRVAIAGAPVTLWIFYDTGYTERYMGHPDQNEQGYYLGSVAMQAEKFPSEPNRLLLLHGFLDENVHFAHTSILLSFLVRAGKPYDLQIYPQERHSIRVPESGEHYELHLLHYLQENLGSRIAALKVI

As usually defined, the IC50 is the midpoint of a concentration-inhibition curve. As for `N#C[C@@H]1C[C@H](F)CN1C(=O)CN1CCC(Oc2cncc3ccccc23)CC1` [Example 420, (2S,4S)-4-fluoro-1-[2-[4-(4-isoquinolyloxy)-1-piperidyl]acetyl]pyrrolidine-2-carbonitrile], the IC50 on Recombinant human FAP (setting [1]) was 0.007 µM; on recombinant human DPP7 (recombinant human DPP7), 2.08 µM; at recombinant human DPP8 (recombinant human DPP8) it was 8.59 µM; on recombinant human DPP9 (recombinant human DPP9), 22.1 µM; on recombinant human PREP (recombinant human PREP), 1740 nM; on DPP4 (recombinant human DPP4), over 10 µM.

As for `COc1ccc2nccc(O[C@H]3CCN(CC(=O)N4CCC[C@H]4C#N)C3)c2c1` [Example 84, (S)-1-(2-((S)-3-((6-methoxyquinolin-4-yl)oxy)pyrrolidin-1-yl)acetyl)pyrrolidine-2-carbonitrile], the IC50 at Recombinant human FAP (setting [2]) is 0.001 µM; at recombinant human DPP7, 9.46 µM; at recombinant human DPP8 (setting [3]) it was over 100 µM; at recombinant human DPP9 (setting [4]), over 100 µM; at recombinant human PREP (setting [2]), 5400 nM; against DPP4 (setting [4]), over 1 µM.

Take `N#C[C@@H]1CCCN1C(=O)CN1CC[C@H](Nc2cnc3ccccc3c2)C1` [Example 229, (2S)-1-[2-[(3S)-3-(3-quinolylamino)pyrrolidin-1-yl]acetyl]pyrrolidine-2-carbonitrile]: the IC50 was 0.0168 µM at Recombinant human FAP (setting [1]); 1.16 µM on recombinant human DPP7 (recombinant human DPP7); over 100 µM at recombinant human DPP8 (recombinant human DPP8); 36.3 µM at recombinant human DPP9 (recombinant human DPP9); 4840 nM on recombinant human PREP (recombinant human PREP); over 10 µM at DPP4 (recombinant human DPP4).

For `N#C[C@@H]1CCCN1C(=O)CN1CC[C@H](Oc2cccc3cnccc23)C1` [Example 65, (S)-1-(2-((S)-3-(isoquinolin-5-yloxy)pyrrolidin-1-yl)acetyl)pyrrolidine-2-carbonitrile], the half-maximal inhibitory concentration (IC50) at Recombinant human FAP (setting [2]) is 0.00677 µM; at recombinant human DPP7 it was 3.4 µM; on recombinant human DPP8 (setting [3]), over 100 µM; on recombinant human DPP9 (setting [4]), 70.6 µM; at recombinant human PREP (setting [2]), 85700 nM; against DPP4 (setting [4]), over 1 µM.

As to `COc1cc2nccc(O[C@H]3CCN(CC(=O)N4CCC[C@H]4C#N)C3)c2cc1OC` [Example 101, (S)-1-(2-((S)-3-((6,7-dimethoxyquinolin-4-yl)oxy)pyrrolidin-1-yl)acetyl)pyrrolidine-2-carbonitrile], the IC50 was 0.00057 µM on Recombinant human FAP (setting [2]); 0.626 µM on recombinant human DPP7; over 100 µM on recombinant human DPP8 (setting [3]); over 100 µM at recombinant human DPP9 (setting [4]); 3020 nM on recombinant human PREP (setting [2]); over 1 µM at DPP4 (setting [4]).

As for `N#C[C@@H]1CC(F)(F)CN1C(=O)CN1CC[C@H](Nc2ccnc3ccccc23)C1` [Example 7, (S)-4,4-difluoro-1-(2-((S)-3-(quinolin-4-ylamino)pyrrolidin-1-yl)acetyl)pyrrolidine-2-carbonitrile], the concentration for half-maximal inhibition (IC50) on Recombinant human FAP (setting [2]) was 0.00046 µM; at recombinant human DPP7 it was under 0.03 µM; on recombinant human DPP8 (setting [3]), 97.6 µM; at recombinant human DPP9 (setting [4]) it was 12.8 µM; on recombinant human PREP (setting [2]), over 100000 nM; at DPP4 (setting [4]) it was over 1 µM.

For the compound `N#C[C@@H]1CC(F)(F)CN1C(=O)CN1CC[C@H](Oc2cccc3[nH]c(=O)ccc23)C1` [Example 108, (S)-4,4-difluoro-1-(2-((S)-3-((2-oxo-1,2-dihydroquinolin-5-yl)oxy)pyrrolidin-1-yl)acetyl)pyrrolidine-2-carbonitrile], the IC50 was 0.00215 µM on Recombinant human FAP (setting [2]); 0.0076 µM on recombinant human DPP7; 6.68 µM on recombinant human DPP8 (setting [3]); 6.3 µM on recombinant human DPP9 (setting [4]); 3150 nM at recombinant human PREP (setting [2]); over 1 µM against DPP4 (setting [4]).

For `N#C[C@@H]1C[C@H](F)CN1C(=O)CN1CCC(Oc2ccnc3ccc(C(F)(F)F)cc23)CC1` [Example 411, (2S,4S)-4-fluoro-1-[2-[4-[[6-(trifluoromethyl)-4-quinolyl]oxy]-1-piperidyl]acetyl]pyrrolidine-2-carbonitrile], the half-inhibitory concentration (IC50) at Recombinant human FAP (setting [1]) was 0.0025 µM; at recombinant human DPP7 (recombinant human DPP7), 3.15 µM; at recombinant human DPP8 (recombinant human DPP8), 9.92 µM; on recombinant human DPP9 (recombinant human DPP9), 29.4 µM; at recombinant human PREP (recombinant human PREP), 10600 nM; on DPP4 (recombinant human DPP4) it was over 10 µM.

What is called inhibition is the percentage by which the read-out fell short of the control. As to `N#C[C@@H]1CCCN1C(=O)CN1CC[C@H](NC(=O)c2coc3cc(O)ccc23)C1` [Example 49, N—((S)-1-(2-((S)-2-cyanopyrrolidin-1-yl)-2-oxoethyl)pyrrolidin-3-yl)-6-hydroxybenzofuran-3-carboxamide], the IC50 on Recombinant human FAP (setting [2]) was 0.00442 µM; on recombinant human DPP7 it was 4.37 µM; on recombinant human DPP8 (setting [3]) it was 12.3 µM; on recombinant human DPP9 (setting [4]), 92.6 µM; on recombinant human PREP (setting [2]), 8360 nM. Moreover, the inhibition at 1 µM at DPP4 worked out at 0.6%.

Consider `Cc1cccc2c(NC3CCN(CC(=O)N4CCC[C@H]4C#N)CC3)nc(Cl)nc12` [Example 359, (2S)-1-[2-[4-[(2-chloro-8-methyl-quinazolin-4-yl)amino]-1-piperidyl]acetyl]pyrrolidine-2-carbonitrile], for which the IC50 is 0.0023 µM on Recombinant human FAP (setting [1]); 0.971 µM on recombinant human DPP7 (recombinant human DPP7); 8.22 µM on recombinant human DPP8 (recombinant human DPP8); 31.3 µM on recombinant human DPP9 (recombinant human DPP9); 6000 nM at recombinant human PREP (recombinant human PREP); over 10 µM on DPP4 (recombinant human DPP4).

With `N#C[C@@H]1CCCN1C(=O)CN1CC[C@H](NC(=O)c2ccc3ccoc3c2)C1` [Example 57, N—((S)-1-(2-((S)-2-cyanopyrrolidin-1-yl)-2-oxoethyl)pyrrolidin-3-yl)benzofuran-6-carboxamide], the half-inhibitory concentration (IC50) at Recombinant human FAP (setting [2]) turned out to be 0.0251 µM; on recombinant human DPP7, 0.499 µM; on recombinant human DPP8 (setting [3]), 6 µM; on recombinant human DPP9 (setting [4]), 26.5 µM; on recombinant human PREP (setting [2]) it was 10200 nM. On DPP4, the inhibition at 1 µM was 0.6%.

Turning to `N#C[C@@H]1CC(F)(F)CN1C(=O)CN1CC[C@H](Oc2ccnc3cc(Cl)ccc23)C1` [Example 107, (S)-1-(2-((S)-3-((7-chloroquinolin-4-yl)oxy)pyrrolidin-1-yl)acetyl)-4,4-difluoropyrrolidine-2-carbonitrile], the concentration for half-maximal inhibition (IC50) is 0.00367 µM at Recombinant human FAP (setting [2]); 0.0187 µM at recombinant human DPP7; 9.89 µM at recombinant human DPP8 (setting [3]); 13.5 µM on recombinant human DPP9 (setting [4]); 6500 nM at recombinant human PREP (setting [2]); over 1 µM at DPP4 (setting [4]).

As to `N#C[C@@H]1CCCN1C(=O)CN1CC[C@H](Nc2c(F)ccc3ncccc23)C1` [Example 241, (2S)-1-[2-[(3S)-3-[(6-fluoro-5-quinolyl)amino]pyrrolidin-1-yl]acetyl]pyrrolidine-2-carbonitrile], the IC50 at Recombinant human FAP (setting [1]) was 0.0045 µM; at recombinant human DPP7 (recombinant human DPP7), 17 µM; at recombinant human DPP8 (recombinant human DPP8) it was 77.3 µM; at recombinant human DPP9 (recombinant human DPP9) it was 48 µM; on recombinant human PREP (recombinant human PREP) it was 13000 nM; at DPP4 (recombinant human DPP4), over 10 µM.

With `COc1cc2nccc(OC3CCN(CC(=O)N4C[C@@H](F)C[C@H]4C#N)CC3)c2cc1OC` [Example 130, (2S,4S)-1-(2-(4-((6,7-dimethoxyquinolin-4-yl)oxy)piperidin-1-yl)acetyl)-4-fluoropyrrolidine-2-carbonitrile], the IC50 on Recombinant human FAP (setting [2]) is 0.00125 µM; on recombinant human DPP7, 0.904 µM; on recombinant human DPP8 (setting [3]) it was 10.4 µM; at recombinant human DPP9 (setting [4]) it was 5.97 µM; at recombinant human PREP (setting [2]), 2340 nM; against DPP4 (setting [4]) it was over 10 µM.

Values taken from patent US11655235B2, “Pyrrolidine and piperidine compounds” (YUHAN CORPORATION, priority 2019, dated 2023).
